In patent publication US5294539A, “Nitrate reductase from yeasts, the preparation and use thereof” (Merck Patent Gesellschaft mit beschrankter Haftung, priority 1990, dated 1994):

Target: NADH-dependent nitrate reductase ([Candida] boidinii, UniProt A0ACB5TRL5)
Sequence (A0ACB5TRL5 entry or part of it): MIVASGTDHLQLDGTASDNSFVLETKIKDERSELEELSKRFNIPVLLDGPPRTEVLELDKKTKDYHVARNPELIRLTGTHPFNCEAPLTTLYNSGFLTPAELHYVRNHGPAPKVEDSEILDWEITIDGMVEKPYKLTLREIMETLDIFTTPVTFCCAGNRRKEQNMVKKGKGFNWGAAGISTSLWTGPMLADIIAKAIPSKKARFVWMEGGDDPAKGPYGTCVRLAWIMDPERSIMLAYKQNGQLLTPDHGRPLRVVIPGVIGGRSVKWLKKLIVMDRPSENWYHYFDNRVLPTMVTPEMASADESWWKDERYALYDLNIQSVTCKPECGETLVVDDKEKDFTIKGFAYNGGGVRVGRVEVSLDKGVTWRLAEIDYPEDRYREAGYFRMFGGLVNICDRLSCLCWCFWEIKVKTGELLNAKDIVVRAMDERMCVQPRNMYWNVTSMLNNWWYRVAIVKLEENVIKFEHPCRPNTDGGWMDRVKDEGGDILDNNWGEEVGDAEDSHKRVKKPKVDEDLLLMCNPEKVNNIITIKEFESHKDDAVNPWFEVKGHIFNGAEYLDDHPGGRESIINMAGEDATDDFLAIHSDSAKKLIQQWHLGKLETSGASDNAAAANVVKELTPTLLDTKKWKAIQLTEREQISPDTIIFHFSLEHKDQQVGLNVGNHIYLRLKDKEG

SMILES: O=NO [nitrite]
- End-product inhibition: up to 50%
